Columns and labels:
hMATE1 [1] = target: T1, hMATE1 (Homo sapiens, UniProt Q96FL8); assay: Inhibition of RI-labeled TEA uptake in HEK293 cells expressing hMATE1; conditions: for Inhibition of TEA uptake activity (in words, summary of Table 1): MATE1 expressing HEK293 cells, 50 μM TEA, pH 8.0
T1 sequence (Q96FL8 1-570): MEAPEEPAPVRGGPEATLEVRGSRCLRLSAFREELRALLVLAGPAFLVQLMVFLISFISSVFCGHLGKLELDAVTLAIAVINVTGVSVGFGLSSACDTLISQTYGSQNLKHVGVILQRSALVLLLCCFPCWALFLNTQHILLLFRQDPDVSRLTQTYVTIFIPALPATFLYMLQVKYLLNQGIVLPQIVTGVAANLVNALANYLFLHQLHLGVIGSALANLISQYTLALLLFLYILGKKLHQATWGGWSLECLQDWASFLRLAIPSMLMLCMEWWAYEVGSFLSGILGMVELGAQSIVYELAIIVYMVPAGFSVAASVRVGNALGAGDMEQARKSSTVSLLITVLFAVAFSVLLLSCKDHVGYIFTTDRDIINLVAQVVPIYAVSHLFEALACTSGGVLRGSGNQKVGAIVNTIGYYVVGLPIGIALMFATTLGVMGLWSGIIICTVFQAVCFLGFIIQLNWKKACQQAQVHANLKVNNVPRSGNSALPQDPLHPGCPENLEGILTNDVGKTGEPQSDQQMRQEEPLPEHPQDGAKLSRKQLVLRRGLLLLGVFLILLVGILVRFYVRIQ

mMATE1 = target: T2, mMATE1 (Mus musculus, UniProt Q8K0H1); assay: Inhibition of RI-labeled TEA uptake in HEK293 cells expressing mMATE1; assay type: cell-based; conditions: 50 μM RI-labeled TEA, pH 8.0, HEK293 cells expressing mMATE1;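 also: transfected HEK293 cells held 5 min at 37 °C before tracer addition, uptake read as radioactivity retained on a 0.45-µm membrane filter, mean ± SD of three to nine experiments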
T2 construct: expressed in transfected cells; host or cells: HEK293
T2 sequence (Q8K0H1 with tags, fused parts or gaps): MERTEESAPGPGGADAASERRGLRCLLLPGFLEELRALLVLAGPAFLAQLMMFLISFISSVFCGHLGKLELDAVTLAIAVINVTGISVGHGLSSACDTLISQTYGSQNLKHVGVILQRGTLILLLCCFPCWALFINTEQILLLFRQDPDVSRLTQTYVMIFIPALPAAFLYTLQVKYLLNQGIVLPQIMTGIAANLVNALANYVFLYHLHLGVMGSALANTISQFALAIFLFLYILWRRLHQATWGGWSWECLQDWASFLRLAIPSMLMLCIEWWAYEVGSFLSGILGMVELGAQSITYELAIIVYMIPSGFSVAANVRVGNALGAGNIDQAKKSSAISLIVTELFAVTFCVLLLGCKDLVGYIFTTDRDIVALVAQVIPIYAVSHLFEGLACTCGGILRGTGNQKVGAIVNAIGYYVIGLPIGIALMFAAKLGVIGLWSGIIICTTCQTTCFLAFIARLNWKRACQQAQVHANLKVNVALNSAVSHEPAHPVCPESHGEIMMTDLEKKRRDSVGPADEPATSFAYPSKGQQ

hMATE1 [2] = target: T1, hMATE1; conditions: for Km: read-out: Km value of transport, substrate transport, cells expressing wild type MATE1 (TEA: FIG. 9(c)), MPP: MATE1, species not stated
hMATE1 [3] = target: T1, hMATE1; conditions: 1 mM 14C-TEA, pH of extracellular fluid varied, FIG. 12
hMATE1 [4] = target: T1, hMATE1; conditions: radioactive nicotine 2 μM, FIG. 10
[5] = compound 0.1 mM, 50 μM RI-labeled TEA, pH 8.0, HEK293 cells expressing hMATE1
[6] = compound 5 mM, 50 μM RI-labeled TEA, pH 8.0, HEK293 cells expressing hMATE1

Question: With `C[n+]1ccc(-c2ccccc2)cc1` [MPP, 1-methyl-4-phenylpyridinium] as the compound, how does the “Inhibition of TEA uptake activity (in words, summary of Table 1)” value (hMATE1 [1]) read?
Answer: inhibited

Question: And the “TEA uptake activity percent taking the level with addition of no compound as 100% (% ± S.D.)” value (hMATE1 [1]; [5])?
Answer: 67.4 ± 8.4%

Question: What about the “TEA uptake activity percent taking the level with addition of no compound as 100% (% ± S.D.)” value (hMATE1 [1]; [6]) of the same compound?
Answer: 0.0 ± 0.3%

Question: And the “TEA uptake activity percent taking the level with addition of no compound as 100% (% ± S.D.)” value (mMATE1; compound 0.1 mM)?
Answer: 33.1 ± 9.5%

Question: What about the “TEA uptake activity percent taking the level with addition of no compound as 100% (% ± S.D.)” value (mMATE1; compound 5 mM) of the same compound?
Answer: 0.0 ± 2.1%

Question: And the Vmax of transport (hMATE1 [2]; MPP as substrate, MATE1, species not stated)?
Answer: 170 pmol/min/mg protein

Question: What about the Km (hMATE1 [2]) of the same compound?
Answer: 16 µM

Question: `CC[N+](CC)(CC)CC` [TEA, tetraethylammonium] was tested. Which “TEA uptake activity percent taking the level with addition of no compound as 100% (% ± S.D.)” value (hMATE1 [1]; pH 8) did it give?
Answer: 0.7 ± 1.8%

Question: What about the “TEA uptake activity percent taking the level with addition of no compound as 100% (% ± S.D.)” value (mMATE1; compound 5 mM) of the same compound?
Answer: 0.0 ± 7. %

Question: And the “Uptake of TEA into liposome containing MATE polypeptide (in words)” value (hMATE1 [3])?
Answer: pH-dependent uptake of TEA was observed

Question: And the Km (hMATE1 [2])?
Answer: 220 µM

Question: How did the “Nicotine transport by MATE1 (in words)” value (hMATE1 [4]) turn out when `CN1CCCC1c1cccnc1` (centres unmarked) [Nicotine] was run?
Answer: functioning as a nicotine transporter

Question: What about the “Inhibition of TEA uptake activity (in words, summary of Table 1)” value (hMATE1 [1]) of the same compound?
Answer: mildly inhibited

Question: And the “TEA uptake activity percent taking the level with addition of no compound as 100% (% ± S.D.)” value (hMATE1 [1]; [5])?
Answer: 63.7 ± 5.0%

Question: And the “TEA uptake activity percent taking the level with addition of no compound as 100% (% ± S.D.)” value (hMATE1 [1]; [6])?
Answer: 5.8 ± 4.3%

Question: What about the remaining activity at 100 µM (mMATE1; compound 0.1 mM, read-out: TEA uptake activity percent taking the level with addition of no compound as 100% (% ± S.D.)) of the same compound?
Answer: 91.9 ± 3.1%

Question: What about the remaining activity at 5000 µM (mMATE1; compound 5 mM, read-out: TEA uptake activity percent taking the level with addition of no compound as 100% (% ± S.D.)) of the same compound?
Answer: 36.7 ± 3.1%
